Laboratory results: the NIST ThermoML archive (doi:10.1016/j.jct.2016.08.005)
± gives the expanded uncertainty stated by the source.

Conditions: Liquid, Vibrating tube method

Cc1ccc(C)s1 [2,5-dimethylthiophene]
Conditions	mass density [kg/m3]
283.15 K, 100 kPa	995.51 ± 0.5
283.15 K, 2000 kPa	996.96 ± 0.5
283.15 K, 5000 kPa	999.21 ± 0.5
283.15 K, 7000 kPa	1000.68 ± 0.5
283.15 K, 10000 kPa	1002.83 ± 0.5
283.15 K, 15000 kPa	1006.35 ± 0.5
283.15 K, 20000 kPa	1009.74 ± 0.5
283.15 K, 25000 kPa	1013.04 ± 0.5
283.15 K, 30000 kPa	1016.24 ± 0.5
283.15 K, 35000 kPa	1019.33 ± 0.5
283.15 K, 40000 kPa	1022.34 ± 0.51
283.15 K, 45000 kPa	1025.27 ± 0.51
283.15 K, 50000 kPa	1028.12 ± 0.51
283.15 K, 55000 kPa	1030.9 ± 0.51
283.15 K, 60000 kPa	1033.6 ± 0.51
283.15 K, 65000 kPa	1036.24 ± 0.52
288.15 K, 100 kPa	990.41 ± 0.5
288.15 K, 2000 kPa	991.9 ± 0.5
288.15 K, 5000 kPa	994.21 ± 0.5
288.15 K, 7000 kPa	995.72 ± 0.5
288.15 K, 10000 kPa	997.94 ± 0.5
288.15 K, 15000 kPa	1001.53 ± 0.5
288.15 K, 20000 kPa	1005.01 ± 0.5
288.15 K, 25000 kPa	1008.38 ± 0.5
288.15 K, 30000 kPa	1011.66 ± 0.5
288.15 K, 35000 kPa	1014.81 ± 0.5
288.15 K, 40000 kPa	1017.89 ± 0.5
288.15 K, 45000 kPa	1020.88 ± 0.51
288.15 K, 50000 kPa	1023.78 ± 0.51
288.15 K, 55000 kPa	1026.62 ± 0.51
288.15 K, 60000 kPa	1029.38 ± 0.51
288.15 K, 65000 kPa	1032.06 ± 0.51
293.15 K, 100 kPa	985.3 ± 0.5
293.15 K, 2000 kPa	986.82 ± 0.5
293.15 K, 5000 kPa	989.21 ± 0.5
293.15 K, 7000 kPa	990.74 ± 0.5
293.15 K, 10000 kPa	993.02 ± 0.5
293.15 K, 15000 kPa	996.71 ± 0.5
293.15 K, 20000 kPa	1000.28 ± 0.5
293.15 K, 25000 kPa	1003.72 ± 0.5
293.15 K, 30000 kPa	1007.07 ± 0.5
293.15 K, 35000 kPa	1010.31 ± 0.5
293.15 K, 40000 kPa	1013.45 ± 0.5
293.15 K, 45000 kPa	1016.49 ± 0.5
293.15 K, 50000 kPa	1019.47 ± 0.51
293.15 K, 55000 kPa	1022.35 ± 0.51
293.15 K, 60000 kPa	1025.15 ± 0.51
293.15 K, 65000 kPa	1027.88 ± 0.51
298.15 K, 100 kPa	980.2 ± 0.5
298.15 K, 2000 kPa	981.78 ± 0.5
298.15 K, 5000 kPa	984.2 ± 0.5
298.15 K, 7000 kPa	985.8 ± 0.5
298.15 K, 10000 kPa	988.14 ± 0.5
298.15 K, 15000 kPa	991.93 ± 0.5
298.15 K, 20000 kPa	995.59 ± 0.5
298.15 K, 25000 kPa	999.13 ± 0.5
298.15 K, 30000 kPa	1002.53 ± 0.5
298.15 K, 35000 kPa	1005.84 ± 0.5
298.15 K, 40000 kPa	1009.04 ± 0.5
298.15 K, 45000 kPa	1012.17 ± 0.5
298.15 K, 50000 kPa	1015.2 ± 0.5
298.15 K, 55000 kPa	1018.14 ± 0.51
298.15 K, 60000 kPa	1021.01 ± 0.51
298.15 K, 65000 kPa	1023.8 ± 0.51
303.15 K, 100 kPa	975.1 ± 0.5
303.15 K, 2000 kPa	976.72 ± 0.5
303.15 K, 5000 kPa	979.23 ± 0.5
303.15 K, 7000 kPa	980.88 ± 0.5
303.15 K, 10000 kPa	983.27 ± 0.5
303.15 K, 15000 kPa	987.17 ± 0.5
303.15 K, 20000 kPa	990.9 ± 0.5
303.15 K, 25000 kPa	994.52 ± 0.5
303.15 K, 30000 kPa	998.02 ± 0.5
303.15 K, 35000 kPa	1001.4 ± 0.5
303.15 K, 40000 kPa	1004.69 ± 0.5
303.15 K, 45000 kPa	1007.85 ± 0.5
303.15 K, 50000 kPa	1010.94 ± 0.5
303.15 K, 55000 kPa	1013.93 ± 0.5
303.15 K, 60000 kPa	1016.85 ± 0.51
303.15 K, 65000 kPa	1019.68 ± 0.51
308.15 K, 100 kPa	970 ± 0.5
308.15 K, 2000 kPa	971.66 ± 0.5
308.15 K, 5000 kPa	974.22 ± 0.5
308.15 K, 7000 kPa	975.91 ± 0.5
308.15 K, 10000 kPa	978.38 ± 0.5
308.15 K, 15000 kPa	982.36 ± 0.5
308.15 K, 20000 kPa	986.2 ± 0.5
308.15 K, 25000 kPa	989.91 ± 0.5
308.15 K, 30000 kPa	993.47 ± 0.5
308.15 K, 35000 kPa	996.93 ± 0.5
308.15 K, 40000 kPa	1000.28 ± 0.5
308.15 K, 45000 kPa	1003.53 ± 0.5
308.15 K, 50000 kPa	1006.66 ± 0.5
308.15 K, 55000 kPa	1009.75 ± 0.5
308.15 K, 60000 kPa	1012.72 ± 0.5
308.15 K, 65000 kPa	1015.59 ± 0.51
313.15 K, 100 kPa	964.84 ± 0.5
313.15 K, 2000 kPa	966.6 ± 0.5
313.15 K, 5000 kPa	969.22 ± 0.5
313.15 K, 7000 kPa	970.97 ± 0.5
313.15 K, 10000 kPa	973.5 ± 0.5
313.15 K, 15000 kPa	977.58 ± 0.5
313.15 K, 20000 kPa	981.52 ± 0.5
313.15 K, 25000 kPa	985.31 ± 0.5
313.15 K, 30000 kPa	988.97 ± 0.5
313.15 K, 35000 kPa	992.49 ± 0.5
313.15 K, 40000 kPa	995.92 ± 0.5
313.15 K, 45000 kPa	999.23 ± 0.5
313.15 K, 50000 kPa	1002.44 ± 0.5
313.15 K, 55000 kPa	1005.56 ± 0.5
313.15 K, 60000 kPa	1008.58 ± 0.5
313.15 K, 65000 kPa	1011.53 ± 0.5
318.15 K, 100 kPa	959.75 ± 0.5
318.15 K, 2000 kPa	961.52 ± 0.5
318.15 K, 5000 kPa	964.24 ± 0.5
318.15 K, 7000 kPa	966 ± 0.5
318.15 K, 10000 kPa	968.6 ± 0.5
318.15 K, 15000 kPa	972.8 ± 0.5
318.15 K, 20000 kPa	976.83 ± 0.5
318.15 K, 25000 kPa	980.72 ± 0.5
318.15 K, 30000 kPa	984.44 ± 0.5
318.15 K, 35000 kPa	988.06 ± 0.5
318.15 K, 40000 kPa	991.55 ± 0.5
318.15 K, 45000 kPa	994.93 ± 0.5
318.15 K, 50000 kPa	998.2 ± 0.5
318.15 K, 55000 kPa	1001.39 ± 0.5
318.15 K, 60000 kPa	1004.46 ± 0.5
318.15 K, 65000 kPa	1007.46 ± 0.5
323.15 K, 100 kPa	954.64 ± 0.5
323.15 K, 2000 kPa	956.46 ± 0.5
323.15 K, 5000 kPa	959.26 ± 0.5
323.15 K, 7000 kPa	961.09 ± 0.5
323.15 K, 10000 kPa	963.75 ± 0.5
323.15 K, 15000 kPa	968.05 ± 0.5
323.15 K, 20000 kPa	972.19 ± 0.5
323.15 K, 25000 kPa	976.16 ± 0.5
323.15 K, 30000 kPa	979.99 ± 0.5
323.15 K, 35000 kPa	983.67 ± 0.5
323.15 K, 40000 kPa	987.24 ± 0.5
323.15 K, 45000 kPa	990.69 ± 0.5
323.15 K, 50000 kPa	994.03 ± 0.5
323.15 K, 55000 kPa	997.27 ± 0.5
323.15 K, 60000 kPa	1000.41 ± 0.5
323.15 K, 65000 kPa	1003.46 ± 0.5
328.15 K, 100 kPa	949.46 ± 0.5
328.15 K, 2000 kPa	951.34 ± 0.5
328.15 K, 5000 kPa	954.21 ± 0.5
328.15 K, 7000 kPa	956.1 ± 0.5
328.15 K, 10000 kPa	958.85 ± 0.5
328.15 K, 15000 kPa	963.27 ± 0.5
328.15 K, 20000 kPa	967.5 ± 0.5
328.15 K, 25000 kPa	971.57 ± 0.5
328.15 K, 30000 kPa	975.49 ± 0.5
328.15 K, 35000 kPa	979.25 ± 0.5
328.15 K, 40000 kPa	982.9 ± 0.5
328.15 K, 45000 kPa	986.42 ± 0.5
328.15 K, 50000 kPa	989.84 ± 0.5
328.15 K, 55000 kPa	993.13 ± 0.5
328.15 K, 60000 kPa	996.35 ± 0.5
328.15 K, 65000 kPa	999.44 ± 0.5
333.15 K, 100 kPa	944.28 ± 0.5
333.15 K, 2000 kPa	946.2 ± 0.5
333.15 K, 5000 kPa	949.16 ± 0.5
333.15 K, 7000 kPa	951.09 ± 0.5
333.15 K, 10000 kPa	953.92 ± 0.5
333.15 K, 15000 kPa	958.46 ± 0.5
333.15 K, 20000 kPa	962.79 ± 0.51
333.15 K, 25000 kPa	966.97 ± 0.51
333.15 K, 30000 kPa	970.97 ± 0.51
333.15 K, 35000 kPa	974.83 ± 0.51
333.15 K, 40000 kPa	978.55 ± 0.5
333.15 K, 45000 kPa	982.15 ± 0.5
333.15 K, 50000 kPa	985.62 ± 0.5
333.15 K, 55000 kPa	988.98 ± 0.5
333.15 K, 60000 kPa	992.25 ± 0.5
333.15 K, 65000 kPa	995.41 ± 0.5
338.15 K, 100 kPa	939.09 ± 0.5
338.15 K, 2000 kPa	941.08 ± 0.5
338.15 K, 5000 kPa	944.14 ± 0.5
338.15 K, 7000 kPa	946.13 ± 0.5
338.15 K, 10000 kPa	949.02 ± 0.5
338.15 K, 15000 kPa	953.67 ± 0.51
338.15 K, 20000 kPa	958.14 ± 0.51
338.15 K, 25000 kPa	962.41 ± 0.51
338.15 K, 30000 kPa	966.51 ± 0.51
338.15 K, 35000 kPa	970.46 ± 0.51
338.15 K, 40000 kPa	974.25 ± 0.51
338.15 K, 45000 kPa	977.91 ± 0.51
338.15 K, 50000 kPa	981.46 ± 0.51
338.15 K, 55000 kPa	984.88 ± 0.5
338.15 K, 60000 kPa	988.2 ± 0.5
338.15 K, 65000 kPa	991.43 ± 0.5
